# According to patent US20130210887A1, “DENDRIMERS AS NON-VIRAL VEHICLES FOR GENE THERAPY” (UNIVERSIDAD DE CASTILLA LA MANCHA, priority 2010, published 2013):
# Test system: siRNA
# Experiment: Gel shift (electrophoretic shift in agarose gel) of siRNA by coupling to the dendrimer
# Format: binding
# Settings: 2 μM siRNA; 30 min incubation at ambient temperature; 1% agarose gel, 15 min at 60V
# From the text: FIG. 1, relates to the electrophoretic shift analysis of siRNA by the coupling to the compound of general formula (I). The numbers in (A) correspond to different N/P ratios (nitrogenated amines in compound of general formula (0/phosphates in siRNA): (1) 1:0 (siRNA alone), (2) 6:1, (3) 12:1, (4) 24:1, (5) 48:1, (6) 96:1, (7) 192:1 and (8) 384:1. The densitometric analysis of the results of the gel shift experiment are shown in (B).
# The compound complexes of general formula (I)-siRNA were formed by mixing equal quantities of volume of the solution that contained compound of general formula (I) and of that containing the siRNA (Org Biomol Chem. 2007. 5: 1886-1893; Pharm Res. 2009. 26: 1181-1191), and incubating the mixture under stirring during 30 minutes at ambient temperature. Both molecules were dissolved in DEPC water (free from RNAses).
# The shift in agarose gel was used to ascertain the N/P ratio (nitrogenated amines in compound of general formula (I)/phosphates in siRNA) adapted to obtain the greatest efficacy of bonding possible between both molecules (Mol Biol Rep. 2009. 36: 1083-1093; Am J Med Genet B Neuropsychiatr Genet. 2008. 147B: 769-777). The mixing of different concentrations of compound of general formula (I) and of 250 ng of siRNA was tested. […] The gels were photographed and the bands were quantified with a suitable image analysis system (Quantity One). […]
smiles,measurement,value
NCCNC(=O)CCN(CCC(=O)NCCN)CCN(CCC(=O)NCCN)Cc1ccc(/C=C/c2cc(/C=C/c3ccc(CN(CCC(=O)NCCN)CCN(CCC(=O)NCCN)CCC(=O)NCCN)cc3)cc(/C=C/c3ccc(CN(CCC(=O)NCCN)CCN(CCC(=O)NCCN)CCC(=O)NCCN)cc3)c2)cc1 [compound of general formula (I)],concentration of compound of general formula (I) at which all the siRNA is fixed (P/N ratio of 12:1),22 µM
